1 molecule from patent publication US20180251847A1, “METHOD OF PREDICTING THE TUMOR RESPONSE TO DNA METHYLATION INHIBITORS AND ALTERNATIVE THERAPEUTIC REGIMEN FOR OVERCOMING RESISTANCE” (PALACKY UNIVERSITY, OLOMOUC, priority 2014, published 2018) can be followed below.

Where two headings read alike, the source gives them in different places. A value given as a limit tells only on which side of the number the result lay.

One assay deals with HCT116 xenografts. The assay can be described thus: Anti-tumor activity in xenografted mouse model, parental HCT116. The format is in vivo, SCID mice. Particulars: parental HCT116 xenograft, DAC 2.5 mg/kg i.p., 10 doses, day 0-21. The source says:
For in vivo validation of HCT116 resistance towards DAC and sensitivity of DAC resistant tumors to (+)-JQ1 treatment, we studied the anti-tumor activity of DAC and (+)-JQ1 in HCT116 parental versus a resistant cell clone R1.4 (HCT116_RDAC). Xenografts were established in 11-12 weeks-old female SCID mice, inoculated with 5×10^6 cells, s.c. on both sides of the chest. After 2 weeks, tumors were palpable (average tumor volume 20 mm^3) and mice were assigned into four groups (8 mice/group). Group I: vehicle control for DAC (10:90, DMSO: PBS) and Group II: DAC, 2.5 mg/kg by i.p. injection once a day for 14 days (5 days on, 2 days off), total 10 doses. […] Body weights of the animals were measured daily and tumor volume data were collected twice a week. […]
For determining the anti-tumor activity of the drugs, DAC and (+)-JQ1, tumor volume data for each group were transformed into relative tumor volumes followed by calculation of treatment to control ratio (T/C ratio) for each time point. […] Statistical significance of the data was determined by calculating bootstrap p-value, n=10000, one-sided test of H0: T/C ratio=1, H1: T/C ratio <1 (Jianrong Wu., Journal of Biopharmaceutical Statistics 2010; 20, 954-64). After day 21, statistical significance cannot be measured accurately due to decreased survival of animals in control group. […]

For a further assay, the system named is HL-60. The assay can be described thus: MTT based cell survival assay, parental HL-60. The settings on record: Homo sapiens, HL-60, read-out: Mean IC50. Here is the method: To study the mechanism of resistance towards DNA methylation inhibitor, 2′-deoxy-5-azacytidine, we used the human colorectal cancer cell line (HCT116), human promyelocytic leukemia cells (HL-60), and human breast adenocarcinoma cell line (MCF-7) obtained from American Type Culture Collection (Manassas, Va.). The cell lines were cultured in complete growth media (Sigma-Aldrich, St. Louis, Mo.), supplemented with fetal bovine serum (FBS, PAN-Biotech GmbH, Aidenbach, Germany), 100 U/mL penicillin (Biotika, Slovenská L'upča, Slovak Republic) and 50 μg/mL streptomycin (Sigma-Aldrich), and the cultures were maintained at 37° C. and 5% CO2, in a humidified incubator. […]
(§1) To determine the IC50 of the epigenetic drugs (Tocris Bioscience, Bristol, United Kingdom), four independent experiments were performed using triplicate wells of 96 well plates. […] The wells with medium alone were included alongside as blank for absorbance readings. […]
(§2) Cross resistance was determined as the fold increase, whereas, the sensitivity was determined as the fold decrease in the IC50 of the drugs for the resistant cell lines compared to their genetically identical drug sensitive counterpart.

A further assay concerns HL-60_RDAC. Description: MTT based cell survival assay, DAC resistant HL-60. Further details: species or system human. The procedure:
For cross validation of data obtained from comparative studies of HCT116 parental and resistant cells, we further developed DAC resistant MCF-7 and HL-60 cell lines. […] However, DAC resistant HL-60 cells were obtained as a gift from the author (Qin T. et al., Blood 2009; 113, 659-67) and was further selected in our laboratory by treatment with 5 μM DAC.
MTT based cell survival assay was performed in either case, whether to determine the cross-resistance of the DAC resistant cell lines towards inhibitors of DNA methyltransferases, histone acetyltransferases, histone methyltransferases, histone deacetylases, and histone demethylases, or to determine their sensitivity towards selective BET bromodomain inhibitors. […]
as §1, §2

Another assay has as its system HCT116. The assay can be described thus: MTT based cell survival assay, parental HCT116. Further details: species or system human. The settings on record: Homo sapiens. Here is the method:
To study the mechanism of resistance towards DNA methylation inhibitor, 2′-deoxy-5-azacytidine, we used the human colorectal cancer cell line (HCT116), human promyelocytic leukemia cells (HL-60), and human breast adenocarcinoma cell line (MCF-7) obtained from American Type Culture Collection (Manassas, Va.). The cell lines were cultured in complete growth media (Sigma-Aldrich, St. Louis, Mo.), supplemented with fetal bovine serum (FBS, PAN-Biotech GmbH, Aidenbach, Germany), 100 U/mL penicillin (Biotika, Slovenská L'upča, Slovak Republic) and 50 μg/mL streptomycin (Sigma-Aldrich), and the cultures were maintained at 37° C. and 5% CO2, in a humidified incubator. The cell line, HCT116 was grown in McCoy's 5 A medium supplemented with 10% FBS and 3 mM L-glutamine (Sigma-Aldrich), HL-60 was grown in Iscove's Modified Dulbecco's Medium with 20% FBS, and MCF-7 was grown in RPMI-1640 medium with 10% FBS.
The method is primarily based on reduction of yellow colored tetrazolium salt, 3-(4,5-dimethylthiazol-2-yl)-2,5-diphenyltetrazolium bromide (MTT) to insoluble purple colored formazan crystals by NAD(P)H-dependent oxidoreductase enzymes in mitochondria of the viable cell. The intensity of the purple color produced on solubilization of the formazan crystals is directly proportional to the number of viable cells (Meerloo J. V. et al., Methods in Molecular Biology 2011; 731, 237-45).
To determine the IC50 of the epigenetic drugs (Tocris Bioscience, Bristol, United Kingdom), four independent experiments were performed using triplicate wells of 96 well plates. Cells in 80 μL of medium were plated in each of the experimental and the control wells, followed by addition of 20 μL medium with five-fold drug concentration to experimental wells. The wells with medium alone were included alongside as blank for absorbance readings. […], 10 μL MTT (Sigma-Aldrich) prepared in 1×PBS (5 mg/mL) was added to all wells including blank and control, and incubated until the purple formazan crystals were visible after which 100 μL of detergent (10% SDS, pH: 5.5) was added and the plates were incubated overnight to solubilize the formazan and the cellular material.
as §2

On to `Nc1ncn([C@H]2C[C@H](O)[C@@H](CO)O2)c(=O)n1` [DAC, 2′-deoxy-5-azacytidine], for which the “fold effect (anti-tumor activity, aAUC of T/C ratio)” value with HCT116 xenografts is listed as 2.9. Moreover, the IC50 is 78 nM in the assay with HL-60; more than 100000 nM with HL-60_RDAC (Homo sapiens, HL-60, read-out: Mean IC50); 280 nM in the assay with HCT116 (HCT-116, 72 h, read-out: Mean IC50); 280 nM in the assay with HCT116 (HCT-116, 120 h, read-out: IC50 concentration of the drug). The “fold change (resistance)” value with HL-60_RDAC (IC50 HL-60_RDAC / IC50 HL-60) is listed as more than 1289 fold.
